One block for each compound: values may come before it. Activity calls are given as the source filed them. The calls are words filed in the database; no cut-off is given here.
Tests used:
[1] = system: GC rich DNA; test: Disruption of native ds-GC12 DNA (unknown origin) base stacking interaction assessed as decrease in positive peak intensity at 283 nm at DNA base-pair to compound ratio of 1:4 by circular dichroism analysis; type: nucleic-acid assay
[2] = system: DNA; test: Induction of GC-rich pYUB12 plasmid DNA (unknown origin) unwinding assessed as DNA structural changes at DNA base-pair to compound ratio of 1:6 incubated for 16 hrs by mobility shift assay; type: nucleic-acid assay
[3] = system: GC rich DNA; test: Displacement of Ethidium bromide from native ds-GC12 short DNA (unknown origin) by Stern-Volmer quenching plot analysis; type: nucleic-acid assay
[4] = system: Calf thymus DNA; test: Binding affinity to calf thymus DNA assessed as change in enthalpy by isothermal titration calorimetry; type: nucleic-acid assay; details: Bos taurus
[5] = system: Calf thymus DNA; test: Binding affinity to calf thymus DNA assessed as change in free energy by isothermal titration calorimetry; type: nucleic-acid assay; details: Bos taurus
[6] = system: Calf thymus DNA; test: Binding affinity to calf thymus DNA by isothermal titration calorimetry; type: nucleic-acid assay; details: Bos taurus
[7] = system: Calf thymus DNA; test: Binding affinity to calf thymus DNA assessed as change in entropy by isothermal titration calorimetry; type: nucleic-acid assay; details: Bos taurus
[8] = system: DNA; test: Induction of GC-rich pYUB12 plasmid DNA (unknown origin) unwinding assessed as complete conformational change as condensed form at DNA base-pair to compound ratio of 1:2 incubated for 16 hrs by mobility shift assay; type: nucleic-acid assay
[9] = system: GC rich DNA; test: Disruption of native ds-GC12 DNA (unknown origin) base stacking interaction assessed as appearance of ICD at 320 to 330 nm by circular dichroism analysis; type: nucleic-acid assay
[10] = system: GC rich DNA; test: Disruption of native ds-GC12 DNA (unknown origin) base stacking interaction assessed as decrease in positive peak intensity at 283 nm by circular dichroism analysis; type: nucleic-acid assay
[11] = system: HCT-116; test: Induction of apoptosis in human HCT-116 cells assessed as viable cells at 0.5 uM incubated for 24 hrs by Annexin V-FITC and propidium iodide staining based flow cytometry analysis (reference value: 95.3%); type: functional; details: read-out: Activity
[12] = system: GC rich DNA; test: Binding affinity to native ds-GC12 DNA assessed as reduction in melting temperature at DNA-base pair to compound ratio of 1:1 by differential scanning calorimetry melting based analysis; type: nucleic-acid assay
[13] = system: HCT-116; test: Induction of apoptosis in human HCT-116 cells assessed as early apoptotic cells at 0.75 uM incubated for 24 hrs by Annexin V-FITC and propidium iodide staining based flow cytometry analysis (reference value: 0.6%); type: functional
[14] = system: HCT-116; test: Induction of DNA double strand breaks in human HCT-116 cells assessed as increase in tail length at 0.5 to 0.75 uM incubated for 24 hrs by neutral comet assay; type: functional, cell-based; details: dose 0.5-0.75 µM
[15] = system: HCT-116; test: Induction of apoptosis in human HCT-116 cells assessed as late apoptotic cells at 0.5 uM incubated for 24 hrs by Annexin V-FITC and propidium iodide staining based flow cytometry analysis (reference value: 0.3%); type: functional
[16] = system: DNA; test: Induction of GC-rich pYUB12 plasmid DNA (unknown origin) superstructure formation assessed as DNA compaction with DNA over-supercoiling at DNA base-pair to compound ratio of 1:1.5 by Atomic Force Microscopic analysis; type: nucleic-acid assay
[17] = system: HCT-116; test: Induction of apoptosis in human HCT-116 cells assessed as necrotic cells at 0.5 uM incubated for 24 hrs by Annexin V-FITC and propidium iodide staining based flow cytometry analysis (reference value: 3.9%); type: functional
[18] = system: GC rich DNA; test: Binding affinity to native ds-GC12 DNA assessed as shift in melting temperature at DNA-base pair to compound ratio of 1:1 by differential scanning calorimetry melting based analysis; type: nucleic-acid assay
[19] = system: HCT-116; test: Induction of apoptosis in human HCT-116 cells assessed as necrotic cells at 0.75 uM incubated for 24 hrs by Annexin V-FITC and propidium iodide staining based flow cytometry analysis (reference value: 3.9%); type: functional
[20] = system: DNA; test: Induction of GC-rich pYUB12 plasmid DNA (unknown origin) superstructure formation assessed as height of plasmid DNA at DNA base-pair to compound ratio of 1:1.5 by Atomic Force Microscopic analysis (reference value: 0.26 +/-0.08 nm); type: nucleic-acid assay
[21] = system: HCT-116; test: Induction of DNA damage in human HCT-116 cells assessed as induction of phosphorylation of gamma-H2AX variant at 0.75 uM incubated for 4 hrs by DAPI staining based immunofluorescence analysis; type: functional, cell-based
[22] = system: DNA; test: Induction of GC-rich pYUB12 plasmid DNA (unknown origin) superstructure formation assessed as DNA compaction with distorted structure at DNA base-pair to compound ratio of 1:1 by Atomic Force Microscopic analysis; type: nucleic-acid assay
[23] = system: GC rich DNA; test: Disruption of native ds-GC12 DNA base (unknown origin) stacking interaction assessed as change in peak intensity at 283 nm at 15 to 60 uM by ellipticity plot based analysis; type: nucleic-acid assay; details: dose 15-60 µM
[24] = system: DNA; test: Induction of GC-rich pYUB12 plasmid DNA (unknown origin) superstructure formation assessed as uncoiling of DNA with nodes and loops formation and DNA compaction at DNA base-pair to compound ratio of 1:0.5 by Atomic Force Microscopic analysis; type: nucleic-acid assay
[25] = system: GC rich DNA; test: Binding affinity to native ds-GC12 DNA assessed as increase in transition temperature of oligonucleotides at DNA-base pair to compound ratio of 1:4 by differential scanning calorimetry melting based analysis; type: nucleic-acid assay
[26] = system: HCT-116; test: Induction of apoptosis in human HCT-116 cells assessed as late apoptotic cells at 0.75 uM incubated for 24 hrs by Annexin V-FITC and propidium iodide staining based flow cytometry analysis (reference value: 0.3%); type: functional
[27] = system: HCT-116; test: Induction of apoptosis in human HCT-116 cells assessed as early apoptotic cells at 1 uM incubated for 24 hrs by Annexin V-FITC and propidium iodide staining based flow cytometry analysis (reference value: 0.6%); type: functional
[28] = system: HCT-116; test: Induction of DNA damage in human HCT-116 cells assessed as induction of phosphorylation of gamma-H2AX variant incubated for 4 hrs by DAPI staining based immunofluorescence analysis; type: functional, cell-based; details: HCT-116, 4 h
[29] = system: HCT-116; test: Induction of apoptosis in human HCT-116 cells assessed as viable cells at 1 uM incubated for 24 hrs by Annexin V-FITC and propidium iodide staining based flow cytometry analysis (reference value: 95.3%); type: functional; details: read-out: Activity
[30] = system: HCT-116; test: Induction of apoptosis in human HCT-116 cells assessed as increase in uptake of fluorescent nucleotide at 0.5 to 0.75 uM incubated for 4 hrs by TUNEL assay; type: functional, cell-based; details: dose 0.5-0.75 µM
[31] = system: DNA; test: Binding affinity to GC-rich pYUB12 plasmid DNA (unknown origin) assessed as induction of DNA unwinding by measuring band shifting at DNA base-pair to compound ratio of 1:1 incubated for 16 hrs by mobility shift assay; type: nucleic-acid assay
[32] = Induction of histone eviction from single assembled nucleosome (unknown origin) assessed as unwrapping of histone from nucleosome at 15 to 20 uM incubated for 4 hrs by silver staining based gel electrophoresis assay; details: dose 15-20 µM
[33] = system: HCT-116; test: Induction of apoptosis in human HCT-116 cells assessed as early apoptotic cells at 0.5 uM incubated for 24 hrs by Annexin V-FITC and propidium iodide staining based flow cytometry analysis (reference value: 0.6%); type: functional
[34] = system: HCT-116; test: Cytotoxicity against human HCT-116 cells assessed as reduction in cell viability incubated for 24 hrs by MTT assay; type: functional, cell-based; details: HCT-116, 24 h
[35] = Induction of histone eviction from single assembled nucleosome (unknown origin) assessed as maximum unwrapping of histone from nucleosome at 25 uM incubated for 4 hrs by silver staining based gel electrophoresis assay
[36] = system: DNA; test: Induction of GC-rich pYUB12 plasmid DNA (unknown origin) unwinding assessed as complete structural change with DNA condensation by measuring increase in condensed DNA band intensity at DNA base-pair to compound ratio of 1:1.5 incubated for 16 hrs by mobility shift assay; type: nucleic-acid assay
[37] = system: HCT-116; test: Induction of DNA double strand breaks in human HCT-116 cells incubated for 24 hrs by neutral comet assay; type: functional, cell-based; details: dose 0.5-0.75 µM, DDE = dose-dependent effect
[38] = system: HCT-116; test: Induction of apoptosis in human HCT-116 cells assessed as necrotic cells at 1 uM incubated for 24 hrs by Annexin V-FITC and propidium iodide staining based flow cytometry analysis (reference value: 3.9%); type: functional
[39] = system: Supercoiled DNA; test: Induction of GC-rich pYUB12 plasmid DNA (unknown origin) unwinding assessed as complete structural change by measuring decrease in band intensity of supercoiled DNA at DNA base-pair to compound ratio of 1:1.5 incubated for 16 hrs by mobility shift assay; type: nucleic-acid assay
[40] = system: GC rich DNA; test: Disruption of native ds-GC12 DNA (unknown origin) base stacking interaction assessed as deformation of DNA native structure at DNA base-pair to compound ratio of 1:4 by circular dichroism analysis; type: nucleic-acid assay
[41] = Induction of histone eviction from single assembled nucleosome (unknown origin) assessed as reduction in nucleosome band intensity at 60 uM incubated for 4 hrs by silver staining based gel electrophoresis assay
[42] = system: HCT-116; test: Induction of apoptosis in human HCT-116 cells assessed as late apoptotic cells at 1 uM incubated for 24 hrs by Annexin V-FITC and propidium iodide staining based flow cytometry analysis (reference value: 0.3%); type: functional
[43] = system: HCT-116; test: Induction of apoptosis in human HCT-116 cells assessed as viable cells at 0.75 uM incubated for 24 hrs by Annexin V-FITC and propidium iodide staining based flow cytometry analysis (reference value: 95.3%); type: functional; details: read-out: Activity
[44] = system: DNA; test: Induction of GC-rich pYUB12 plasmid DNA (unknown origin) unwinding assessed as DNA structural changes at DNA base-pair to compound ratio of 1:4 incubated for 16 hrs by mobility shift assay; type: nucleic-acid assay
[45] = system: GC rich DNA; test: Disruption of native ds-GC12 DNA (unknown origin) base stacking interaction assessed as DNA structural changes by circular dichroism analysis; type: nucleic-acid assay

Activity [1]: Active
Activity [2]: Active
KSV [3]: < 1 10^4/M
Structure (SMILES): CN(C)CCCNc1nc2cc([N+](=O)[O-])ccc2nc1NCc1ccc(N)cc1

deltaH [4]: -6.28 kJ/mol
Activity [1]: Active
Activity [2]: Active
deltaG [5]: -26.7 kJ/mol
KSV [3]: < 1 10^4/M
Ka [6]: 3.96 10^4/M
TdeltaS [7]: 20.4 kJ/mol
Structure (SMILES): CN(C)CCCNc1nc2cc([N+](=O)[O-])ccc2nc1NCc1ccc(O)cc1

Activity [1]: Active
Activity [2]: Active
KSV [3]: < 1 10^4/M
Structure (SMILES): CN(C)CCCNc1nc2cc([N+](=O)[O-])ccc2nc1NCc1ccccc1

Activity [8]: Active
Activity [2]: Active
Activity [9]: Active
KSV [3]: 2.8 10^4/M
Activity [10]: Active
Structure (SMILES): CN(C)CCCNc1nc2cc([N+](=O)[O-])ccc2nc1NCc1ccc(Br)cc1

deltaH [4]: -7.32 kJ/mol
ΔTm [12]: 2.5 °C
Activity [16]: Active
Tm [18]: 49.5 °C
Activity [2]: Active
Activity [20]: 1.48 nm
Activity [22]: Active
Activity [23]: Active
Activity [24]: Active
deltaG [5]: -32.9 kJ/mol
ΔTm [25]: 12 °C
KSV [3]: 5.8 10^4/M
Activity [31]: Active
Activity [32]: Active
Ka [6]: 4.66 10^5/M
Activity [35]: Active
Activity [10]: Active
TdeltaS [7]: 25.6 kJ/mol
Activity [36]: Active
Activity [39]: Active
Activity [40]: Active
Activity [41]: Active
Structure (SMILES): CN(C)CCCNc1nc2cc([N+](=O)[O-])ccc2nc1NCc1ccc(I)cc1
viability at 0.5 µM [11]: 2.2%
Activity [13]: 76.8%
Activity [14]: Active
Activity [15]: 18.2%
Activity [17]: 0.3%
Activity [19]: 0.4%
Activity [21]: Active
Activity [26]: 21.1%
Activity [27]: 69.3%
IC50 [28]: 0.5 µM
viability at 1 µM [29]: 3%
Activity [30]: Active
Activity [33]: 79.2%
IC50 [34]: 0.44 µM
Activity [37]: Dde
Activity [38]: 0.7%
Activity [42]: 27%
viability at 0.75 µM [43]: 1.7%

deltaH [4]: -7.78 kJ/mol
Activity [44]: Active
Activity [45]: Active
deltaG [5]: -30.1 kJ/mol
KSV [3]: 1.7 10^4/M
Ka [6]: 1.54 10^5/M
TdeltaS [7]: 22.3 kJ/mol
Structure (SMILES): Cc1ccc(CNc2nc3ccc([N+](=O)[O-])cc3nc2NCCCN(C)C)cc1

Activity [2]: Active
KSV [3]: < 1 10^4/M
Structure (SMILES): CN(C)CCCNc1nc2cc([N+](=O)[O-])ccc2nc1NCc1ccc(C#N)cc1

Activity [1]: Active
KSV [3]: 1.26 10^4/M
Structure (SMILES): CN(C)CCCNc1nc2cc([N+](=O)[O-])ccc2nc1NCc1ccc(F)cc1
